Values joined by “and” are separate entries in the source; they are usually repeats but may differ in a detail not shown here. Identical values can stand only once.
Tested on: 556581-035-R-J1-PDC complex spheroid growth
Assay: Anticancer human tumor 556581-035-R-J1-PDC patient-derived ovarian carcinoma cell line growth inhibition [AhR]
Settings: for viability, T/C: stronger effect = lower value; active = viability on the fitted dose curve at most 10% of control; inactive = the rest
Procedure, shortened: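 Agents were dosed in half-log steps down from roughly clinical Cmax, or from 10 microM where Cmax was unknown, alone and with AhR antagonists. Read-out: percent test/control growth of tumor spheroids containing HUVEC and MSC stromal cells.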

[1] = curve of first compound, second compound 0.1 µM
[2] = curve of first compound, second compound 0.316 µM
[3] = curve of first compound, second compound 1 µM
[4] = curve of first compound, second compound 3.16 µM
[5] = curve of first compound, second compound 10 µM
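Throughout, for viability, T/C: compound exposure lasted 7 days; 100% = DMSO vehicle control growth.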

Nc1ccccc1NC(=O)c1ccc(CNC(=O)OCc2cccnc2)cc1 + Cc1ccccc1N=Nc1ccc(NC(=O)c2ccnn2C)c(C)c1
inactive: viability, T/C (second compound 0.1 µM, first compound 0.0316 µM) 101% | viability, T/C (second compound 0.1 µM, first compound 0.1 µM) 112% | viability, T/C (second compound 0.1 µM, first compound 0.316 µM) 87.2% | viability, T/C (second compound 0.1 µM, first compound 1 µM) 69.3% | viability, T/C (second compound 0.1 µM, first compound 3.16 µM) 40.8% | viability, T/C (second compound 0.1 µM, first compound 10 µM) 18.9% | viability, T/C (second compound 0.316 µM, first compound 0.0316 µM) 110% | viability, T/C (second compound 0.316 µM, first compound 0.1 µM) 102% | viability, T/C (second compound 0.316 µM, first compound 0.316 µM) 93.7% | viability, T/C (second compound 0.316 µM, first compound 1 µM) 72.2% | viability, T/C (second compound 0.316 µM, first compound 3.16 µM) 41.1% | viability, T/C (second compound 0.316 µM, first compound 10 µM) 19.4% | viability, T/C (second compound 1 µM, first compound 0.0316 µM) 110% | viability, T/C (second compound 1 µM, first compound 0.1 µM) 106% | viability, T/C (second compound 1 µM, first compound 0.316 µM) 92.7% | viability, T/C (second compound 1 µM, first compound 1 µM) 70% | viability, T/C (second compound 1 µM, first compound 3.16 µM) 49% | viability, T/C (second compound 1 µM, first compound 10 µM) 21.5% | viability, T/C (second compound 3.16 µM, first compound 0.0316 µM) 113% | viability, T/C (second compound 3.16 µM, first compound 0.1 µM) 104% | viability, T/C (second compound 3.16 µM, first compound 0.316 µM) 88.3% | viability, T/C (second compound 3.16 µM, first compound 1 µM) 68.5% | viability, T/C (second compound 3.16 µM, first compound 3.16 µM) 47.3% | viability, T/C (second compound 3.16 µM, first compound 10 µM) 20.6% | viability, T/C (second compound 10 µM, first compound 0.0316 µM) 99.5% | viability, T/C (second compound 10 µM, first compound 0.1 µM) 95.9% | viability, T/C (second compound 10 µM, first compound 0.316 µM) 92.9% | viability, T/C (second compound 10 µM, first compound 1 µM) 68.2% | viability, T/C (second compound 10 µM, first compound 3.16 µM) 52.2% | viability, T/C (second compound 10 µM, first compound 10 µM) 32.8%
2790 nM: IC50 [3]
2310 nM: IC50 [2]
3110 nM: IC50 [5]
2640 nM: IC50 [4]
2120 nM: IC50 [1]

CC[C@@]1(O)C(=O)OCc2c1cc1n(c2=O)Cc2cc3c(CN(C)C)c(O)ccc3nc2-1
inactive: viability, T/C (compound 0.000316 µM) 101% and 94.3% and 103% | viability, T/C (compound 0.001 µM) 103% and 90.5% and 99.5% | viability, T/C (compound 0.00316 µM) 91.3% and 91.8% and 95.9% | viability, T/C (compound 0.01 µM) 87.9% and 84.7% and 81.2% | viability, T/C (compound 0.0316 µM) 77.2% and 66.1% and 69.9% | viability, T/C (compound 0.1 µM) 54.1% and 51.6% and 47%
> 100 nM and 86.9 nM: IC50 (curve of compound)

CC(C)CC(NC(=O)C(Cc1ccccc1)NC(=O)c1cnccn1)B(O)O (configuration not stated) + Cc1ccccc1N=Nc1ccc(NC(=O)c2ccnn2C)c(C)c1
5.9 nM: IC50 [3]
active: viability, T/C (second compound 0.1 µM, first compound 0.00949 µM) 8.91% | viability, T/C (second compound 0.1 µM, first compound 0.03 µM) 0.21% | viability, T/C (second compound 0.1 µM, first compound 0.0949 µM) 0.17% | viability, T/C (second compound 0.1 µM, first compound 0.3 µM) 0.27% | viability, T/C (second compound 0.316 µM, first compound 0.03 µM) 0.34% | viability, T/C (second compound 0.316 µM, first compound 0.0949 µM) 0.22% | viability, T/C (second compound 0.316 µM, first compound 0.3 µM) 0.22% | viability, T/C (second compound 1 µM, first compound 0.03 µM) 0.19% | viability, T/C (second compound 1 µM, first compound 0.0949 µM) 0.16% | viability, T/C (second compound 1 µM, first compound 0.3 µM) 0.26% | viability, T/C (second compound 3.16 µM, first compound 0.03 µM) 0.16% | viability, T/C (second compound 3.16 µM, first compound 0.0949 µM) 0.17% | viability, T/C (second compound 3.16 µM, first compound 0.3 µM) 0.22% | viability, T/C (second compound 10 µM, first compound 0.03 µM) 0.35% | viability, T/C (second compound 10 µM, first compound 0.0949 µM) 0.31% | viability, T/C (second compound 10 µM, first compound 0.3 µM) 0.28%
5.73 nM: IC50 [2]
5.78 nM: IC50 [1]
5.64 nM: IC50 [4]
inactive: viability, T/C (second compound 0.1 µM, first compound 0.000949 µM) 91.6% | viability, T/C (second compound 0.1 µM, first compound 0.003 µM) 117% | viability, T/C (second compound 0.316 µM, first compound 0.000949 µM) 97.2% | viability, T/C (second compound 0.316 µM, first compound 0.003 µM) 105% | viability, T/C (second compound 0.316 µM, first compound 0.00949 µM) 10.2% | viability, T/C (second compound 1 µM, first compound 0.000949 µM) 90.2% | viability, T/C (second compound 1 µM, first compound 0.003 µM) 115% | viability, T/C (second compound 1 µM, first compound 0.00949 µM) 13.2% | viability, T/C (second compound 3.16 µM, first compound 0.000949 µM) 88.2% | viability, T/C (second compound 3.16 µM, first compound 0.003 µM) 100% | viability, T/C (second compound 3.16 µM, first compound 0.00949 µM) 13.6% | viability, T/C (second compound 10 µM, first compound 0.000949 µM) 82.3% | viability, T/C (second compound 10 µM, first compound 0.003 µM) 89.1% | viability, T/C (second compound 10 µM, first compound 0.00949 µM) 25.9%
5.97 nM: IC50 [5]

Source: PubChem BioAssay AID1918999 (Molecular Pharmacology Branch, DTP, NCI, 2023)
